Measured values as given in patent US10206394B2, “Herbicidal compounds” (Syngenta Participations AG, priority 2014, dated 2019).
Like-named read-outs stand apart in the source and are kept apart here.

Tests used:
Test in all cases: Glasshouse assay for herbicidal activity (pre- and post-emergence), percentage phytotoxicity
Assay type in all cases: in vivo
[1] = system: Alopecurus myosuroides (ALOMY); conditions: Alopecurus myosuroides, rate 250 g/ha
In short: (§1)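 Seeds were sown in standard soil in pots and grown one day (pre-emergence) or about 12 days (post-emergence) before herbicide application. Plants were kept at 24/18 °C (warm-climate) or 20/16 °C (cool-climate) day/night, 16 h light, 65% humidity, watered twice daily, and damage was scored visually at 15 DAA (POST) or 20 DAA (PRE).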

Lolium perenne (LOLPE) = conditions: Lolium perenne, rate 250 g/ha
In short: as §1

[2] = system: Echinochloa crus-galli (ECHCG); conditions: Echinochloa crus-galli, rate 250 g/ha
In short: as §1

Avena fatua (AVEFA) = conditions: Avena fatua, rate 250 g/ha
In short: as §1

[3] = post-emergence, 360 h, POST-emergence, visual score 15 DAA (100%=total damage, 0%=no damage), read-out: Post-emergence herbicidal activity (percentage phytotoxicity) ALOMY POST
[4] = pre-emergence, 480 h, PRE-emergence, visual score 20 DAA (100%=total damage, 0%=no damage), read-out: Pre-emergence herbicidal activity (percentage phytotoxicity) ALOMY PRE
[5] = post-emergence, 360 h, POST-emergence, visual score 15 DAA (100%=total damage, 0%=no damage), read-out: Post-emergence herbicidal activity (percentage phytotoxicity) LOLPE POST
[6] = pre-emergence, 480 h, PRE-emergence, visual score 20 DAA (100%=total damage, 0%=no damage), read-out: Pre-emergence herbicidal activity (percentage phytotoxicity) LOLPE PRE
[7] = post-emergence, 360 h, POST-emergence, visual score 15 DAA (100%=total damage, 0%=no damage), read-out: Post-emergence herbicidal activity (percentage phytotoxicity) ECHCG POST
[8] = pre-emergence, 480 h, PRE-emergence, visual score 20 DAA (100%=total damage, 0%=no damage), read-out: Pre-emergence herbicidal activity (percentage phytotoxicity) ECHCG PRE
[9] = post-emergence, 360 h, POST-emergence, visual score 15 DAA (100%=total damage, 0%=no damage), read-out: Post-emergence herbicidal activity (percentage phytotoxicity) AVEFA POST
[10] = pre-emergence, 480 h, PRE-emergence, visual score 20 DAA (100%=total damage, 0%=no damage), read-out: Pre-emergence herbicidal activity (percentage phytotoxicity) AVEFA PRE

Compound	pest or weed control at 250 g/ha [1, 3] [%]	pest or weed control at 250 g/ha [1, 4] [%]	pest or weed control at 250 g/ha (Lolium perenne (LOLPE); [5]) [%]	pest or weed control at 250 g/ha (Lolium perenne (LOLPE); [6]) [%]	pest or weed control at 250 g/ha [2, 7] [%]	pest or weed control at 250 g/ha [2, 8] [%]	pest or weed control at 250 g/ha (Avena fatua (AVEFA); [9]) [%]	pest or weed control at 250 g/ha (Avena fatua (AVEFA); [10]) [%]
Cc1cc(-n2cc(Cl)cn2)cc(C)c1C1C(=O)CC(CC(=O)NCc2cccc(F)c2)C1=O (stereo not shown) [Compound B223]	90	90	80	80	100	90	100	70
COc1ccc(CNC(=O)CC2CC(=O)C(c3c(C)cc(-n4cc(Cl)cn4)cc3C)C2=O)cc1 (stereo not shown) [Compound B224]	80	80	80	70	90	70	80	50
Cc1cc(-n2cc(Cl)cn2)cc(C)c1C1C(=O)CC(CC(=O)NCc2ccc(C#N)cc2)C1=O (stereo not shown) [Compound B225]	60	0	60	0	70	0	70	0
C=CCNC(=O)CC1CC(=O)C(c2c(C)cc(-n3cc(Cl)cn3)cc2C)C1=O (stereo not shown) [Compound B226]	100	100	90	80	100	100	90	90
Cc1cc(-n2cc(Cl)cn2)cc(C)c1C1C(=O)CC(CC(=O)NCC2CC2)C1=O (stereo not shown) [Compound B227]	100	80	90	80	100	80	100	80
CCN(C)C(=O)CC1CC(=O)C(c2c(C)cc(-n3cc(Cl)cn3)cc2C)C1=O (stereo not shown) [Compound B228]	100	100	100	100	100	90	100	90
Cc1cc(-n2cc(Cl)cn2)cc(C)c1C1C(=O)CC(CC(=O)N(C)C(C)(C)C)C1=O (stereo not shown) [Compound B229]	80	90	70	90	100	100	80	90
C#CCN(C)C(=O)CC1CC(=O)C(c2c(C)cc(-n3cc(Cl)cn3)cc2C)C1=O (stereo not shown) [Compound B230]	100	90	90	90	100	100	100	90
CCc1cc(-n2cc(Cl)cn2)cc(C)c1C1C(=O)CC(CC(=O)NCc2cccc(Cl)c2)C1=O (stereo not shown) [Compound B231]	90	50	90	80	90	80	100	20
CCc1cc(-n2cc(Cl)cn2)cc(C)c1C1C(=O)CC(CC(=O)NCc2cccc(F)c2)C1=O (stereo not shown) [Compound B232]	100	90	100	90	100	90	100	70
CCc1cc(-n2cc(Cl)cn2)cc(C)c1C1C(=O)CC(CC(=O)NCc2ccc(OC)cc2)C1=O (stereo not shown) [Compound B233]	60	70	70	70	100	70	70	60
CCc1cc(-n2cc(Cl)cn2)cc(C)c1C1C(=O)CC(CC(=O)NCc2ccc(C#N)cc2)C1=O (stereo not shown) [Compound B234]	90	60	80	70	90	70	100	80
CCc1cc(-n2cc(Cl)cn2)cc(C)c1C1C(=O)CC(CC(=O)NC(C)C)C1=O (stereo not shown) [Compound B235]	100	100	100	100	100	100	100	100
C=CCNC(=O)CC1CC(=O)C(c2c(C)cc(-n3cc(Cl)cn3)cc2CC)C1=O (stereo not shown) [Compound B236]	100	90	100	90	100	90	100	90
CCc1cc(-n2cc(Cl)cn2)cc(C)c1C1C(=O)CC(CC(=O)NCC2CC2)C1=O (stereo not shown) [Compound B237]	100	100	100	90	100	90	100	90
CCc1cc(-n2cc(Cl)cn2)cc(C)c1C1C(=O)CC(CC(=O)N(C)CC)C1=O (stereo not shown) [Compound B238]	100	100	100	100	100	100	100	100
CCc1cc(-n2cc(Cl)cn2)cc(C)c1C1C(=O)CC(CC(=O)N(C)C(C)(C)C)C1=O (stereo not shown) [Compound B239]	90	100	100	100	100	100	100	90
